Assay results published in patent US20220226340A1, “CASEIN KINASE 1 INHIBITORS FOR USE IN THE TREATMENT OF DISEASES RELATED TO DUX4 EXPRESSION SUCH AS MUSCULAR DYSTROPHY AND CANCER” (Facio Intellectual Property B.V., priority 2019, published 2022).
Like-named read-outs stand apart in the source and are kept apart here.

How the values were obtained:
CK1α = CK1α (Homo sapiens, UniProt P48729); assay: CK1α inhibition IC50; assay type: biochemical
p38α = p38α (Homo sapiens, UniProt Q16539); assay: p38α inhibition IC50; assay type: biochemical
Sequence of p38α (Q16539 whole entry): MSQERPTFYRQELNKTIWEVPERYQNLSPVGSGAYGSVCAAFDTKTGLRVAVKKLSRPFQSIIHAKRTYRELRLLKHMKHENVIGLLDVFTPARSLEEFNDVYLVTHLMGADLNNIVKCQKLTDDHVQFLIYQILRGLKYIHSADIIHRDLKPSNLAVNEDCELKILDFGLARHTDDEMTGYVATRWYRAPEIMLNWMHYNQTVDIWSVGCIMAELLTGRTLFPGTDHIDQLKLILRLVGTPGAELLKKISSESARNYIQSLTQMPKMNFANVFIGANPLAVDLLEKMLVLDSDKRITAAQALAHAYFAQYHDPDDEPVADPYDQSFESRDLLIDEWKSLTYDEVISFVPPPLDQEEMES

CK1δ = CK1δ (Homo sapiens, UniProt P48730); assay: CK1δ inhibition IC50; assay type: biochemical
Sequence of CK1δ (P48730 whole entry): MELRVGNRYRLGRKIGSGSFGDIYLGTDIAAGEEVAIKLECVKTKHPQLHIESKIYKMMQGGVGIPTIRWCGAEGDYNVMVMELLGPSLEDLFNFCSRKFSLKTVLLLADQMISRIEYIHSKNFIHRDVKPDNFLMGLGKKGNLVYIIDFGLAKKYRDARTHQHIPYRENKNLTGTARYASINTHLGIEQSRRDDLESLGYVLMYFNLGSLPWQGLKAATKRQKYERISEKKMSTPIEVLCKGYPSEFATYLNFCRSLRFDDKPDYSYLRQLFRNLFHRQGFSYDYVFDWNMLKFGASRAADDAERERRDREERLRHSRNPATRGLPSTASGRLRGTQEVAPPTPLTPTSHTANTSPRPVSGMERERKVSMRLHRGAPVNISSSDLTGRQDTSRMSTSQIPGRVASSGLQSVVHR

DUX4 = assay: high-content immunocytochemistry assay of endogenous DUX4 expression in differentiating primary FSHD myotubes; assay type: cell-based, human; settings: for EC50: Homo sapiens, Myotube
Source text: (§1) A quantitative assay readout was developed based on script-based image analysis. […] To analyse the images, an automated script was developed, enabling the detection of nuclei, myotube borders and DUX4 signals, with the script also detecting artefacts to reduce false positive signals. The script enabled multiple validated readouts including the number of DUX4 positive nuclei and nuclei clusters, the fusion index, myotube area, myotube width and myotube skeleton length (see FIG. 2). Additionally, the total nuclei count was included as a measure of cell loss or compound toxicity.
A compound library containing approximately 5000 annotated compounds was screened in the high-content assay. For this purpose, primary myoblasts were seeded in 384 well plates after which the growth medium was replaced with differentiation medium. After 3 days of differentiation, cells were treated with library compounds (in duplicate on different screening plates) for 15 h, after which they were fixed and stained with antibodies against DUX4, antibodies against myosin heavy chain (MHC), and with DAPI (4′,6-diamidino-2-phenylindole). Script-based analysis provided readouts for DUX4 expression (count of DUX4-positive nuclei or DUX4 intensity) and for potential toxicity (fusion index and nuclei count).
Compounds were incubated with primary FSHD cells for 15 hours, as indicated by the arrow in FIG. 4A.
(§2) Compounds are administered either 15 h before fixation, resembling the original screening protocol, or 72 h before fixation (grey arrow). In the latter case, compounds are present during the whole differentiation process.

CK1ε = CK1ε (Homo sapiens, UniProt P49674); assay: CK1ε inhibition IC50; assay type: biochemical
Sequence of CK1ε (P49674 whole entry, the tested form may be a part): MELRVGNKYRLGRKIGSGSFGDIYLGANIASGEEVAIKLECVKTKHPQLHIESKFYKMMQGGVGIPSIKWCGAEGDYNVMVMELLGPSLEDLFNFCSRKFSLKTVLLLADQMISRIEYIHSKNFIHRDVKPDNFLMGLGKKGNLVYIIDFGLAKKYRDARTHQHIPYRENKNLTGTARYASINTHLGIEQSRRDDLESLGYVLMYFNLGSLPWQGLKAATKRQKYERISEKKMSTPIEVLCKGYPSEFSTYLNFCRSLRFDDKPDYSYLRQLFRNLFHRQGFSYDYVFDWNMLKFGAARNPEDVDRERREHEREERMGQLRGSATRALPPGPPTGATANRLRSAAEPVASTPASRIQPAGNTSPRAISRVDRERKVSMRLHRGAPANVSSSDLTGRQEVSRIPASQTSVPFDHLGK

primary FSHD cells = assay: fusion index (myotube fusion) readout of the high-content assay in primary FSHD cells; assay type: cell-based, human; settings: for effect on fusion index / myotube fusion: 72 h treatment, compound present during whole differentiation
Source text: as §1, §2

[1] = 72 h, Table 4, 72 h treatment protocol, read-out: DUX4 EC50
[2] = 72 h, Table 6, 72 h treatment protocol, read-out: DUX4 EC50
[3] = Table 7, p38 compounds, read-out: IC50 CK1a
[4] = Table 7, p38 compounds, read-out: IC50 p38
[5] = 15 h, read-out: EC50 for DUX4 repression

Sequence of CK1α (P48729 whole entry): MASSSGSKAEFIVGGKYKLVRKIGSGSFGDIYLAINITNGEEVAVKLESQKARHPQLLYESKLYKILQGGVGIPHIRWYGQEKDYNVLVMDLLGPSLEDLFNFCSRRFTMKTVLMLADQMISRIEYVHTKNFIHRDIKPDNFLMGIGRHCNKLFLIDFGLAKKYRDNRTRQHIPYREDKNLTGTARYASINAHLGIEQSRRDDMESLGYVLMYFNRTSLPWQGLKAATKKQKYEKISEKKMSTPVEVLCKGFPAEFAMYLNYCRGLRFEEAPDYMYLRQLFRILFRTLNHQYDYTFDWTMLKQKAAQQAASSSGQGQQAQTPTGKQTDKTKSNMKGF

SMILES	IC50 (CK1α; Table 4, read-out: CK1 a IC50) [nM]	IC50 (CK1α; Table 6, read-out: IC50 CK1α) [nM]	IC50 (p38α; Table 4, read-out: p38a IC50) [nM]	IC50 (p38α; Table 6, read-out: IC50 p38α) [nM]	IC50 (CK1δ; Table 4, read-out: CK1 d IC50) [nM]	IC50 (CK1δ; Table 6, read-out: IC50 CK1δ) [nM]	EC50 (DUX4; [1]) [nM]	EC50 (DUX4; [2]) [nM]	further results
OCCC#Cc1nc(-c2ccc(F)cc2)c(-c2ccncc2)n1CCCc1ccccc1 [RWJ 67657, reference compound]	1830	1830	15.9	16	115	115	780	780	
Nc1nccc(-c2c(-c3ccc(F)cc3)ncn2C2CCCCC2)n1 [PF-670462, reference compound]			32.4				760	760	IC50 (p38α; Table 3, read-out: p38a IC50): 32.4 nM; effect on DUX4 (DUX4; 72 h treatment): repress DUX4
c1ccc(-c2nc3ccc(N4CCC(N5CCCC5)CC4)nn3c2-c2ccncc2)cc1 [Nr. 13]							310	310	
Nc1nccc(-c2c(-c3ccc(F)cc3)ncn2C2CCN(Cc3ccon3)CC2)n1 [PF-5006739, reference compound]			74.3		19.8		620	620	IC50 (p38α; Table 3, read-out: p38a IC50): 74.3 nM; IC50 (CK1δ; Table 3, read-out: CK1 d IC50): 19.8 nM; IC50 (CK1ε; Table 3, read-out: CK1 e IC50): 26.8 nM; IC50 (CK1ε; Table 4, read-out: CK1 e IC50): 26.8 nM
NC(=O)c1ccc(N(C(N)=O)c2c(F)cccc2F)nc1-c1ccc(F)cc1F [VX702, 2-(2,4-difluorophenyl)-6-(1-(2,6-difluoropheny)ureido)nicotinamide, reference compound]									IC50 (CK1α; [3]): > 10000 nM
Cn1c(=O)c(Oc2ccc(F)cc2F)cc2cnc(NC(CCO)CCO)nc21 [Pamapimod, reference compound]									IC50 (CK1α; [3]): > 10000 nM
CNC(=O)c1ccc(C)c(-n2c(C)cc(OCc3ccc(F)cc3F)c(Br)c2=O)c1 [PH797804, reference compound]									IC50 (CK1α; [3]): > 10000 nM
CCCNC(=O)c1cn2ncnc(Nc3cc(C(=O)NC4CC4)ccc3C)c2c1C [BMS-582949, reference compound]									IC50 (CK1α; [3]): > 10000 nM
Cc1ccc(C(=O)NC2CC2)cc1-n1ncc(C(=O)c2cccc(C#N)c2)c1N [Acumapimod, reference compound]									IC50 (CK1α; [3]): > 10000 nM; IC50 (p38α; [4]): 22 nM; effect on fusion index / myotube fusion (primary FSHD cells): inhibited the fusion index
CN1Cc2nccc(-c3cn(C)nc3-c3ccc(F)cc3)c2C1=O [Nr. 5]									myotube formation in the presence of increasing concentrations of losmapimod (primary FSHD cells; 72 h, CK1 inhibitor combined with losmapimod, microscopic images): myotube formation is still intact; EC50 (DUX4; 15 h, read-out: DUX4 EC50): 1890 nM; EC50 (DUX4; [5]): 1900 to 3100 nM; EC50 (DUX4; 72 h, read-out: DUX4 EC50): 6700 nM
CN1CCN(c2ccc3nc(-c4ccc(F)cc4)c(-c4ccncc4)n3n2)CC1 [Nr. 2]	65	65	23	23	29	29	340	340	
CC(C)(C)Cn1c(N)nc2ccc(-c3[nH]c(C(C)(C)C)nc3-c3ccc(F)cc3)nc21 [LY2228820, reference compound]									IC50 (CK1α; [3]): > 10000 nM; IC50 (p38α; [4]): 14 nM; IC50 (CK1δ; Table 7, p38 compounds, read-out: IC50 CK1d): 2780 nM; effect on fusion index / myotube fusion (primary FSHD cells): inhibited the fusion index
Cn1cc(-c2ccnc3c2C(=O)N(C2CCOCC2)C3)c(-c2ccc(F)cc2)n1 [Nr. 6]							8100	8100	IC50 (CK1ε; Table 3, read-out: CK1 e IC50): 72.4 nM; IC50 (CK1ε; Table 4, read-out: CK1 e IC50): 72.4 nM
Cc1c(F)cc(C(=O)NC2CC2)cc1-c1ccc(C(=O)NCC(C)(C)C)cn1 [Losmapimod, reference compound]									IC50 (CK1α; [3]): > 10000 nM; effect on DUX4 (DUX4; added during the last 15 h of differentiation): did not show any effect
Cn1cc(-c2ccnc(N)n2)c(-c2ccc(F)cc2)n1 [Nr. 18]	636	636	312	312	46.5	46	8200	8200	
Fc1ccc(-c2nc3ccc(N4CCNC5(CC5)C4)nn3c2-c2ccncc2)cc1 [Nr. 21]	61.4	61	28.9	29	58.5	58	100	100	
COCCN1Cc2nccc(-c3cn(C)nc3-c3ccc(F)cc3)c2C1=O [Nr. 7]						42	5000	5000	IC50 (CK1ε; Table 6, read-out: IC50 CK1ε): 92 nM

SMILES	IC50 (CK1α; Table 4, read-out: CK1 a IC50) [nM]	IC50 (CK1α; Table 6, read-out: IC50 CK1α) [nM]	IC50 (p38α; Table 4, read-out: p38a IC50) [nM]	IC50 (p38α; Table 6, read-out: IC50 p38α) [nM]	IC50 (CK1δ; Table 4, read-out: CK1 d IC50) [nM]	IC50 (CK1δ; Table 6, read-out: IC50 CK1δ) [nM]	EC50 (DUX4; [1]) [nM]	EC50 (DUX4; [2]) [nM]	further results
Fc1cccc(-n2cnc3c(NCc4nc5ccc(F)c(F)c5[nH]4)nc(N4CCOCC4)nc32)c1 [SR-3029, reference compound]									IC50 (p38α; Table 3, read-out: p38a IC50): > 1000 nM; EC50 (DUX4; 15 h, read-out: DUX4 EC50): 50 nM; EC50 (DUX4; [5]): 50 to 120 nM
Cc1ccc(-n2nc(C(C)(C)C)cc2NC(=O)NCc2cc(F)ccc2Oc2ccc3c(cnn3CCO)c2)cc1 [pexmetinib, reference compound]									IC50 (CK1α; [3]): > 10000 nM
Fc1ccc(-c2nn(CC(F)(F)F)cc2-c2ccnc3[nH]ccc23)cc1 [Nr. 20]	186	186	50.3	50	55.5	55	2200	2200	
Cn1cc(-c2ccnc3[nH]ccc23)c(-c2ccc(F)cc2)n1 [Nr. 16]	196	196			16.9	17	1200	1200	IC50 (p38α; IC50 p38α, Table 6): 18 nM; IC50 (p38α; p38a IC50, Table 4): 17.9 nM
CNCc1cc(-c2cn(C)nc2-c2ccc(F)cc2)ccn1 [Nr. 9]						58			EC50 (DUX4; [5]): 3100 to 5500 nM; EC50 (DUX4; 72 h, read-out: DUX4 EC50): 6400 nM
Fc1ccc(-c2nc3ccc(N4CCOCC4)nn3c2-c2ccncc2)cc1 [Nr. 23]	> 10000	> 10000	1250	1250	2090	2090	2400	2400	
Cc1cc(-c2cn(C)nc2-c2ccc(F)cc2)ccn1 [Nr. 19]	4020	4020	449	449	80.7	81	4900	4900	
CC1(C)CN(c2ccc3nc(-c4ccc(F)cc4)c(-c4ccncc4)n3n2)CCN1 [Nr. 1]	29.5	29	13.2		18.5	18	40	40	IC50 (CK1α; Table 3, read-out: CK1 a IC50): 29.5 nM; IC50 (p38α; Table 3, read-out: p38a IC50): 13.2 nM; IC50 (CK1δ; Table 3, read-out: CK1 d IC50): 18.5 nM; IC50 (CK1ε; Table 3, read-out: CK1 e IC50): 12.4 nM; IC50 (CK1ε; Table 4, read-out: CK1 e IC50): 12.4 nM; EC50 (DUX4; 15 h, Table 3, 15 h treatment protocol, primary FSHD cells, read-out: EC50 for DUX4 repression): 40 nM
C[C@@H]1CN(Cc2ccc(F)cc2)[C@@H](C)CN1C(=O)c1cc2c(C(=O)C(=O)N(C)C)cn(C)c2cc1Cl [SCIO469, reference compound]									IC50 (CK1α; [3]): > 10000 nM
Cc1cc(F)ccc1-c1nc(NC(CO)CO)nc2c1ccc(=O)n2-c1c(F)cccc1F [SB-681323, reference compound]									IC50 (CK1α; [3]): > 10000 nM; IC50 (p38α; [4]): 11 nM; effect on fusion index / myotube fusion (primary FSHD cells): inhibited the fusion index
Fc1ccc(-c2nc3sc(N4CCNCC4)nn3c2-c2ccncc2)cc1 [Nr. 24]	331	331	21.7	22	55.7	58	480	480	
CN1CCN(c2ccc3nc(-c4ccccc4)c(-c4ccncc4)n3n2)CC1 [Nr. 11]							250	250	
c1ccc(-c2nc3ccc(N4CCNCC4)nn3c2-c2ccncc2)cc1 [Nr. 12]							50	50	
Cn1cc(-c2ccncc2)c(-c2ccc(F)cc2)n1 [Nr. 17]	873	873	63.2	63	36.1	36	2900	2900	
Fc1ccc(-c2nc3ccc(N4CCNCC4)nn3c2-c2ccnnc2)cc1 [Nr. 22]	194	194	411	411	57.7	58	1100	1100	
Fc1ccc(-c2nc3ccc(N4CCC(N5CCCC5)CC4)nn3c2-c2ccncc2)cc1 [Nr. 14]	270	270	42	42	45	45	390	390	
CC1(C)CN(c2ccc3nc(-c4ccccc4)c(-c4ccncc4)n3n2)CCN1 [Nr. 10]							10	10	
